From paper doi:10.1101/2025.09.24.678246 (bioRxiv, 2025)
Values after ≈ are worked out from the molar mass of the structure shown. Values joined by “and” are separate entries in the source; they are usually repeats but may differ in a detail not shown here. Equal values may be shown once. “Also recorded” adds a separate entry of the source. Read-outs that look alike come from different tables or passages of the source.

Columns and labels:
[1] = tested on: H37Rv ΔbioA TetON-1 (BioA-OE); assay type: cell-based; conditions: for normalized growth (no drug = 100): Fig. 2C, BioA-OE
[2] = tested on: drug sensitive and resistant Mtb isolates; experiment: microbe, parasite or virus in culture; assay type: cell-based; conditions: Mycobacterium tuberculosis
WT H37Rv = assay type: cell-based, Mycobacterium tuberculosis
[3] = tested on: C48-resistant Mtb H37Rv mutants; assay type: cell-based, Mycobacterium tuberculosis; conditions: for susceptibility of C48-resistant mutants: compared with parent strain
[4] = tested on: H37Rv ΔbioA TetON-5 (BioA-UE); assay type: cell-based; conditions: Fig. 2C
[5] = M. tb CRC clinical strain K5072429, DS

## O=C1CCc2cc(N3CCN(C(=O)c4ccc(F)c(Br)c4)CC3)ncc21 [C48]
[1]; ATc-inducible BioA overexpression
  potency with increasing expression of BioA: decreases monotonically
[1]; [C48] 0.02 µM
  normalized growth (no drug = 100): 99.1764 and 99.8577 and 98.7033
[1]; [C48] 0.0434 µM
  normalized growth (no drug = 100): 95.2869 and 101.385 and 96.6682
[1]; [C48] 0.0941 µM
  normalized growth (no drug = 100): 94.175 and 96.4099 and 95.7333
[1]; [C48] 0.204 µM
  normalized growth (no drug = 100): 92.9284 and 86.8526 and 87.9532
[1]; [C48] 0.443 µM
  normalized growth (no drug = 100): 34.2705 and 25.7913 and 36.1572
[1]; [C48] 0.96 µM
  normalized growth (no drug = 100): 3.4759 and 3.24 and 3.555
[1]; [C48] 4.52 µM
  normalized growth (no drug = 100): 1.679 and 2.083 and 1.432
[1]; [C48] 21.3 µM
  normalized growth (no drug = 100): 2.409 and 2.139 and 2.1956
[1]; [C48] 46.1 µM
  normalized growth (no drug = 100): 1.96 and 2.297 and 2.072
[1]; [C48] 100 µM
  normalized growth (no drug = 100): 1.477 and 2.083 and 1.862
[2]; [5]
  MIC: < 0.024 µM
[2]; M. tb Erdman, DS
  MIC: 0.024 µM (≈ 0.01 µg/mL)
[2]; M. tb HN878, DS
  MIC: 0.0156 µM (≈ 0.00652 µg/mL)
[2]; M. tb K03b00DS, DS
  MIC: 0.047 µM (≈ 0.0197 µg/mL)
[2]; M. tb K04b00DS, DS
  MIC: 0.023 µM (≈ 0.00962 µg/mL)
[2]; M. tb K05b00DS, DS
  MIC: 0.0156 µM (≈ 0.00652 µg/mL)
[2]; M. tb K07b00DS, DS
  MIC: 0.023 µM (≈ 0.00962 µg/mL)
[2]; M. tb K08b00DS, DS
  MIC: < 0.024 µM
[2]; M. tb K09b00DS, DS
  MIC: 0.023 µM (≈ 0.00962 µg/mL)
[2]; M. tb K10b00DS, DS
  MIC: < 0.024 µM
[2]; M. tb K11b00DS, DS
  MIC: 0.0625 µM (≈ 0.0261 µg/mL)
[2]; M. tb K12b00DS, DS
  MIC: 0.023 µM (≈ 0.00962 µg/mL)
[2]; M. tb K13b00DS, DS
  MIC: 0.023 µM (≈ 0.00962 µg/mL)
[2]; M. tb K14b00DS, DS
  MIC: 0.0156 µM (≈ 0.00652 µg/mL)
[2]; M. tb K15b00DS, DS
  MIC: < 0.024 µM
[2]; M. tb K16b00DS, DS
  MIC: < 0.024 µM
[2]; M. tb K17b00DS, DS
  MIC: < 0.024 µM
[2]; M. tb K35b00DS, DS
  MIC: < 0.024 µM
[2]; M. tb NIH1B314, DR
  MIC: 0.0313 µM (≈ 0.0131 µg/mL)
[2]; M. tb NIH_G1DS, DS
  MIC: < 0.024 µM
[2]; M. tb NIH_G9R, DR
  MIC: 0.0156 µM (≈ 0.00652 µg/mL)
[2]; M. tb NIH_G10R, DR
  MIC: 0.0313 µM (≈ 0.0131 µg/mL)
[2]; M. tb NIH_G11R, DR
  MIC: 0.0156 µM (≈ 0.00652 µg/mL)
[2]; M. tb NIH_G12, DS
  MIC: < 0.024 µM
[2]; M. tb NIH_G16R, DR
  MIC: < 0.024 µM
[2]; M. tb NIH_G17R, DR
  MIC: < 0.024 µM
[2]; M. tb NIH_G22R, DR
  MIC: < 0.024 µM
[2]; M. tb NIH_GA36, DS
  MIC: < 0.024 µM
[2]; M. tb NIH_SA3, DS
  MIC: < 0.024 µM
[2]; M. tb NIH_SA23, DS
  MIC: < 0.024 µM
[2]; M. tb NIH_SA27, DS
  MIC: < 0.024 µM
[2]; M. tb NIH_SA39, DS
  MIC: < 0.024 µM
[2]; M. tb NIH_SA43, DS
  MIC: < 0.024 µM
[2]; M. tb NIH_SA125, DS
  MIC: < 0.024 µM
WT H37Rv
  frequency of spontaneously resistant mutants: approximately 3×10^−8
[3]
  MIC shift compared to WT: Large; also recorded: Medium
  increase in MIC of 30 resistant mutants compared to WT H37Rv: approximately 300 fold
  resistance level of bioA mutant Met91Ile: high-level resistance
  resistance level of bioA mutants Met91Val, Met91Thr, Cys168Tyr: medium-level resistance
[4]; [C48] 0.02 µM
  normalized growth (no drug = 100): 85.8582 and 52.7583 and 51.6425
[4]; [C48] 0.0434 µM
  normalized growth (no drug = 100): 81.0305 and 46.7008 and 49.5132
[4]; [C48] 0.443 µM
  normalized growth (no drug = 100): 0.2448 and 0.3701 and 0.3017
[4]; [C48] 4.52 µM
  normalized growth (no drug = 100): 0.6433 and 0.5522 and 0.8369
[4]; [C48] 21.3 µM
  normalized growth (no drug = 100): 0.723 and 0.8369 and 1.008
[4]; [C48] 46.1 µM
  normalized growth (no drug = 100): 1.133 and 0.9394 and 1.076
[4]; [C48] 100 µM
  normalized growth (no drug = 100): 0.9037 and 0.9849 and 0.9735

## NNC(=O)c1ccncc1 [INH, isoniazid, reference compound]
[3]
  susceptibility of C48-resistant mutants: retained susceptibility

## CC(=O)NC[C@H]1CN(c2ccc(N3CCOCC3)c(F)c2)C(=O)O1 [Linezolid, reference compound]
[2]; M. tb CDC1551, DS
  MIC: 1.2 µM (≈ 0.405 µg/mL)
[2]; [5]
  MIC: 1.2 µM (≈ 0.405 µg/mL)
[2]; M. tb Erdman, DS
  MIC: 1.6 µM (≈ 0.54 µg/mL)
[2]; M. tb K03b00DS, DS
  MIC: 2.3 µM (≈ 0.776 µg/mL)
[2]; M. tb K04b00DS, DS
  MIC: 1.2 µM (≈ 0.405 µg/mL)
[2]; M. tb K07b00DS, DS
  MIC: 2.3 µM (≈ 0.776 µg/mL)
[2]; M. tb K09b00DS, DS
  MIC: 1.2 µM (≈ 0.405 µg/mL)
[2]; M. tb K13b00DS, DS
  MIC: 1.2 µM (≈ 0.405 µg/mL)
[2]; M. tb K14b00DS, DS
  MIC: 1.2 µM (≈ 0.405 µg/mL)
[2]; M. tb K35b00DS, DS
  MIC: 1.2 µM (≈ 0.405 µg/mL)
[2]; M. tb NIH_G1DS, DS
  MIC: 2.3 µM (≈ 0.776 µg/mL)
[2]; M. tb NIH_G9R, DR
  MIC: 2.3 µM (≈ 0.776 µg/mL)
[2]; M. tb NIH_G11R, DR
  MIC: 2.3 µM (≈ 0.776 µg/mL)
[2]; M. tb NIH_G12, DS
  MIC: 2.3 µM (≈ 0.776 µg/mL)
[2]; M. tb NIH_G16R, DR
  MIC: 3.13 µM (≈ 1.06 µg/mL)
[2]; M. tb NIH_G17R, DR
  MIC: 3.13 µM (≈ 1.06 µg/mL)
[2]; M. tb NIH_G22R, DR
  MIC: 3.13 µM (≈ 1.06 µg/mL)
[2]; M. tb NIH_GA36, DS
  MIC: 1.6 µM (≈ 0.54 µg/mL)

## CO[C@H]1/C=C/O[C@@]2(C)Oc3c(C)c(O)c4c(O)c(c(/C=N/N5CCN(C)CC5)c(O)c4c3C2=O)NC(=O)/C(C)=C\C=C\[C@H](C)[C@H](O)[C@@H](C)[C@@H](O)[C@@H](C)[C@H](OC(C)=O)[C@@H]1C [Rifampicin, rifampicin, reference compound]
[3]
  susceptibility of C48-resistant mutants: retained susceptibility
